One data set deals with HEK293. The experiment in a line: inhibitors of LMP1-driven NF-kB reporter, dose response, cell-based, HEK293, luciferase, cherry-pick (AID 588343). The data set is classed as functional. The following applies: Homo sapiens.
The target in another data set is Cytochrome P450 2C19 (Homo sapiens, UniProt P33261). The experiment in a line: Cytochrome panel assay with activity outcomes. Panel member name: p450-cyp2c19 Compounds with AC50 equal or less than 10 uM are considered active. The conditions noted are these: read-out: AC50. The format is functional.
The target of a further data set is Cytochrome P450 3A4 (Homo sapiens, UniProt P08684).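 Note: CYP3A4 tested as one member of a cytochrome P450 panel screen.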
A further data set addresses T1, Cytochrome P450 1A2 (Homo sapiens, UniProt P05177).
T1 sequence (P05177 whole entry): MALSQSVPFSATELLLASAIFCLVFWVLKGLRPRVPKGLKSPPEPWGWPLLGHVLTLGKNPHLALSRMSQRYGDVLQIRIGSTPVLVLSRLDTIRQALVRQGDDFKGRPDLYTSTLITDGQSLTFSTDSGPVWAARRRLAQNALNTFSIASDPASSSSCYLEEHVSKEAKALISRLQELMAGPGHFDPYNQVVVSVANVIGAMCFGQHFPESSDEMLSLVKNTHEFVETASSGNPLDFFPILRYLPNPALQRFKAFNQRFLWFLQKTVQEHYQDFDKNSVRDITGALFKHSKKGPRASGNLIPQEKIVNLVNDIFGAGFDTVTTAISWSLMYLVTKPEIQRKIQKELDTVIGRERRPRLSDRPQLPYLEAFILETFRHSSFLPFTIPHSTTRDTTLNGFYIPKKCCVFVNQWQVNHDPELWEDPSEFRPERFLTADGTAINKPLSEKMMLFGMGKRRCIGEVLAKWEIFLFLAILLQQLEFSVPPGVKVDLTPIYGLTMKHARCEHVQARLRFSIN

The next data set has as its target Cytochrome P450 2C9 (Homo sapiens, UniProt P11712).
Data set [1] has as its target T2, Corticotropin-releasing factor receptor 2/Corticotropin-releasing factor-binding protein (Homo sapiens, UniProt P24387+Q13324).
T2 sequence (Q13324 whole entry): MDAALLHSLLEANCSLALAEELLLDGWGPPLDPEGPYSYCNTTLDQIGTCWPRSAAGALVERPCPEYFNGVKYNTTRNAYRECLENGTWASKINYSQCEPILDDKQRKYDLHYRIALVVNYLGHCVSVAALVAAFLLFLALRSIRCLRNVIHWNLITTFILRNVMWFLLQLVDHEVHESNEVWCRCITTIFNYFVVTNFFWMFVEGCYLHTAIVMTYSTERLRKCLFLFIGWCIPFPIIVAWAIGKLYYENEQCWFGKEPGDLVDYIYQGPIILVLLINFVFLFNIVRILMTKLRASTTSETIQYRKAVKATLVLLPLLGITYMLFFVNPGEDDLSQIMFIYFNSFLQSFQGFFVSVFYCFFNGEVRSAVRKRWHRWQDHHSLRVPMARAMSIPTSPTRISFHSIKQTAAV
T2 sequence (P24387 whole entry): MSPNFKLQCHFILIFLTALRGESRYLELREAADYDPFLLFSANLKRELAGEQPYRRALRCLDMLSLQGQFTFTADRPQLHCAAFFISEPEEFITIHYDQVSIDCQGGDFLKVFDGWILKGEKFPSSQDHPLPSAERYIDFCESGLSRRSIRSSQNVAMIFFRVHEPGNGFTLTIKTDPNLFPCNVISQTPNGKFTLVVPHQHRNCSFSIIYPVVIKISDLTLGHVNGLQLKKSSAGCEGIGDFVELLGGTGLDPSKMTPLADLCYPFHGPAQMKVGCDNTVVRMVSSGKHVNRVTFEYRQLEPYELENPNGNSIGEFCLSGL
The experiment in a line: activators of CRF receptor 2 with binding protein – uHTS hits, confirmation (AID 602473). The format is functional. The conditions noted are these: read-out: EC50_Mean.

Data set [2] can be described thus: cytotoxicity in MIN6 insulinoma cells, dose response, cytotoxicity control, cell-based, mouse insulinoma (AID 2122).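 Note: confirmatory high-throughput counterscreen run to flag cytotoxic compounds; mouse MIN-6 beta cells carrying an insulin promoter eGFP reporter.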 The format is functional.
Data set [3] in a line: insulin promoter down-regulators in MIN6 cells, imaging, high-content screening, mouse beta cells (AID 1628). The data set is classed as functional.
A short description of data set [4]: HepG2 cell cytotoxicity, dose response, cytotoxicity control for Shn3 inhibitor project, CellTiter-Glo, cherry-picked (AID 624134). The data set is classed as functional, cell-based. A general note: In ATP-based viability assays light output follows the ATP content of the culture.
Data set [5] can be described thus: Shn3 3'UTR reporter inhibitors, dose response, cell-based, Clone20 osteoblasts, firefly luciferase, cherry-picked (AID 624132).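 Note: firefly luciferase luminescence from reporter carrying the Shn3 3'UTR in osteoblasts.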 The data set is classed as functional.
Data set [6] in a line: control 3'UTR Renilla luciferase suppression, dose response, counter-screen for Shn3 inhibitor project, cell-based, Clone20-Shn3RL, cherry-picked (AID 624133). The format is functional. In general terms: The purpose of a counterscreen is to sort out artefacts and off-target activity.
For another data set, the target named is T3, Streptokinase A (Streptococcus pyogenes serotype M1, UniProt P10520).
T3 sequence (P10520 whole entry): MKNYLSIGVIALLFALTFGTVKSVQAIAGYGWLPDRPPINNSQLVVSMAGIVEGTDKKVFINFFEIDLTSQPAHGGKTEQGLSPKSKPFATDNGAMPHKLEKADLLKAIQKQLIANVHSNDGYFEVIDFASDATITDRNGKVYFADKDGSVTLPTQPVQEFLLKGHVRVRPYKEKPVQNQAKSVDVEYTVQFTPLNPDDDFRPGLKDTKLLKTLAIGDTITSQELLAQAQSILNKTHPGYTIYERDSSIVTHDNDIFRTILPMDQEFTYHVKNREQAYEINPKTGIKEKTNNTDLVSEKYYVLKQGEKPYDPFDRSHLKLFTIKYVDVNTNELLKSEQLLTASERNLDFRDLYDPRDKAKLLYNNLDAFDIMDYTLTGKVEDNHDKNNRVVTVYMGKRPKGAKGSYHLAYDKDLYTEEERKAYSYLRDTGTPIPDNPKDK
The data set is described as follows: S. pyogenes streptokinase expression inhibitors, potency, dose response, plasminogen activation absorbance, OD405 (AID 1914).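 Note: secreted streptokinase activity via plasminogen activation per viability signal from cell pellet.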 The format is functional, Streptococcus pyogenes M1 GAS.

Data set [7] has as its system Streptococcus sp. 'group A'. The experiment in a line: growth inhibition of control SK(-) GAS strain, dose response, counter-screen for streptokinase expression inhibitor project, luminescence, kanamycin, BacTiterGlo, confirmation (AID 1900). The data set is classed as functional, organism-based.
Data set [8] addresses DNA dC->dU-editing enzyme APOBEC-3A (Homo sapiens, UniProt P31941). The experiment in a line: Dose Response confirmation of small molecule APOBEC3A DNA Deaminase Inhibitors via a fluorescence-based single-stranded DNA deaminase assay. [Related pubchem assays (depositor defined):AID493011, AID493024]. The format is functional.
The target in data set [9] is DNA dC->dU-editing enzyme APOBEC-3G (Homo sapiens, UniProt Q9HC16). The format is functional.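 Note: Dose-response counterscreen measuring inhibition of APOBEC3G DNA deaminase activity, run while confirming APOBEC3A inhibitors.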
A further data set relates to Streptococcus. The experiment in a line: Group A Streptococcus viability loss, dose response, counter-screen for streptokinase expression inhibitor project, luminescence, BacTiterGlo (AID 1915).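 Note: potency for reduction of bacterial viability or growth.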 The data set is classed as functional, organism-based.
For another data set, the target named is Mu-type opioid receptor (Homo sapiens, UniProt P35372). The format is functional, cell-based.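 Note: U2OS cells with beta-arrestin recruitment to OPRM1 by beta-gal complementation.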
In data set [10] the target is 5-hydroxytryptamine receptor 2A (Mus musculus, UniProt P35363). The format is functional, cell-based.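 Note: CHO-K1 cells with tagged receptor and beta-arrestin; agonist potency measured as compound-induced activation of the receptor.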
The nature of data set [11]: Counterscreen for inhibitors of Trypanosoma brucei methionyl tRNA synthetase (MetRS): Luminescence-based cell-based high throughput dose response assay to identify compounds that are cytotoxic to Jurkat human T lymphocyte cells. The format is functional.
Data set [12] addresses T4, Calpain-2 catalytic subunit (Sus scrofa, UniProt P43367).
T4 sequence (P43367 whole entry): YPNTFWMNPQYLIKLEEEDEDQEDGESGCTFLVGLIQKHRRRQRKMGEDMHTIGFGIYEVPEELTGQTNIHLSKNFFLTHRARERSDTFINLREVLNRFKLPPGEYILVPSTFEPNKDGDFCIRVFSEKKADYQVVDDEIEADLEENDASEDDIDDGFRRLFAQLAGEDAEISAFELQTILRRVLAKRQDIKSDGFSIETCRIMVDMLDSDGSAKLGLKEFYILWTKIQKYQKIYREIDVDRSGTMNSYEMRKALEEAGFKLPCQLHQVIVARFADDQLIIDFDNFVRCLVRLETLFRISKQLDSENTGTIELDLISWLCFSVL
The data set is described as follows: pig calpain II inhibitor potency, dose response, biochemical, fluorogenic peptide substrate (AID 1420). The data set is classed as functional.

The target of data set [13] is T5, Methionyl-tRNA synthetase, putative (Trypanosoma brucei brucei, UniProt Q38C91).
T5 sequence (Q38C91 whole entry): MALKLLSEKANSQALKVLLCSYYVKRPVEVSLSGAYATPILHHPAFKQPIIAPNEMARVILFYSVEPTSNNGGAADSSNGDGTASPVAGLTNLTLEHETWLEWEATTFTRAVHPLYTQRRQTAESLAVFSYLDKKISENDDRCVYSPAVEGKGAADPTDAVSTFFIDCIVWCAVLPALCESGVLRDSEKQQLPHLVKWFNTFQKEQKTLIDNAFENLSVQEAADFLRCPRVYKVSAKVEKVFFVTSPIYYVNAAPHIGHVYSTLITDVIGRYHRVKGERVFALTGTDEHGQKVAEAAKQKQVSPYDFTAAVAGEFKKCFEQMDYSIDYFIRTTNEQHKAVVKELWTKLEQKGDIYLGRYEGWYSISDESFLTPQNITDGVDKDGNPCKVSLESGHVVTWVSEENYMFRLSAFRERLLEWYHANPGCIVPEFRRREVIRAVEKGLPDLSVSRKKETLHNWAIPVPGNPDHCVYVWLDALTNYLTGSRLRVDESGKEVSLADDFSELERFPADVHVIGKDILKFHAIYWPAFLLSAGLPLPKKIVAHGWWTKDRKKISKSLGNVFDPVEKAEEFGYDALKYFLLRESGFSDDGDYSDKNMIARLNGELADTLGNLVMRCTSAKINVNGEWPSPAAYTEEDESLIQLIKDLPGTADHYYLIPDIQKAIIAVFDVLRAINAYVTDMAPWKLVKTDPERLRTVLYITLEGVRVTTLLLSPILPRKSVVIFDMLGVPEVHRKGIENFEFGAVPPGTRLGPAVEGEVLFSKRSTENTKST
The data set is classed as functional, Trypanosoma brucei brucei strain 927/4 GUTat10.1.

Calls of active or inactive are those of the source.

Sequence of Cytochrome P450 3A4 (P08684 whole entry): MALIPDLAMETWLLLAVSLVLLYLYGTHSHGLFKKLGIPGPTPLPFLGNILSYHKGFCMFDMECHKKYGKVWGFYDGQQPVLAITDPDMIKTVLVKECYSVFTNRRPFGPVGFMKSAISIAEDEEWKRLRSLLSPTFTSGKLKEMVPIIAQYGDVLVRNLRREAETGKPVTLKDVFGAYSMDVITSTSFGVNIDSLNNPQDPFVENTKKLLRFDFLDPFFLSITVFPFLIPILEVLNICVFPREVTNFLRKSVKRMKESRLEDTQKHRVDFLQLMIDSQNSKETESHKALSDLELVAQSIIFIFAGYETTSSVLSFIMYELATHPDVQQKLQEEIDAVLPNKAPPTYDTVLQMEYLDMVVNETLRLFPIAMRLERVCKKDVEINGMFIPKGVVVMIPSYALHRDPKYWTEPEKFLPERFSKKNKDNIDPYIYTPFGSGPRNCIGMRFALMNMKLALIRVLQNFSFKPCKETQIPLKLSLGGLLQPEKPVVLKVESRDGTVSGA
Sequence of Mu-type opioid receptor (P35372 whole entry): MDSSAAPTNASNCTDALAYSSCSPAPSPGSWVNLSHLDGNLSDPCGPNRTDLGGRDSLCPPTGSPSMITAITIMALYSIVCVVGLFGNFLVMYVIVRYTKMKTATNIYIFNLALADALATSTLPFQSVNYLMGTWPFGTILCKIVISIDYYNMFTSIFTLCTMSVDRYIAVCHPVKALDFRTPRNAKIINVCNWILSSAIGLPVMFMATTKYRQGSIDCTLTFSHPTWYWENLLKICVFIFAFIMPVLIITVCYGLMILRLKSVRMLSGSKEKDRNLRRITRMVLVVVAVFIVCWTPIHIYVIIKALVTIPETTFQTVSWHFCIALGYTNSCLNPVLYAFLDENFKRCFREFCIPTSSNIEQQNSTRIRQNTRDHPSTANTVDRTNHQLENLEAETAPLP
Sequence of Cytochrome P450 2C9 (P11712 whole entry): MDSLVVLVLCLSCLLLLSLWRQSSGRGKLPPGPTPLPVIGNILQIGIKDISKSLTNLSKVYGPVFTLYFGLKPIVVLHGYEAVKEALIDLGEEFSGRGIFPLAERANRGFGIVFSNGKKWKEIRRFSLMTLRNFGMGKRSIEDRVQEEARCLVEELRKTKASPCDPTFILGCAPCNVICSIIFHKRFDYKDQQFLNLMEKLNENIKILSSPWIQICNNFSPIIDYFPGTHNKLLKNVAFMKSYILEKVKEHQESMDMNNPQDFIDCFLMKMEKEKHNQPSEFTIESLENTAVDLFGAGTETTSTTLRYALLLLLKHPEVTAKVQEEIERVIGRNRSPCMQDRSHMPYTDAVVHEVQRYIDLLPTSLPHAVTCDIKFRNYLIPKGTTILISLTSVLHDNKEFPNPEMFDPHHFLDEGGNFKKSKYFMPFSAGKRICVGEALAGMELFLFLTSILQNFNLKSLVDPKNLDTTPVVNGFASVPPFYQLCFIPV
Sequence of Cytochrome P450 2C19 (P33261 whole entry): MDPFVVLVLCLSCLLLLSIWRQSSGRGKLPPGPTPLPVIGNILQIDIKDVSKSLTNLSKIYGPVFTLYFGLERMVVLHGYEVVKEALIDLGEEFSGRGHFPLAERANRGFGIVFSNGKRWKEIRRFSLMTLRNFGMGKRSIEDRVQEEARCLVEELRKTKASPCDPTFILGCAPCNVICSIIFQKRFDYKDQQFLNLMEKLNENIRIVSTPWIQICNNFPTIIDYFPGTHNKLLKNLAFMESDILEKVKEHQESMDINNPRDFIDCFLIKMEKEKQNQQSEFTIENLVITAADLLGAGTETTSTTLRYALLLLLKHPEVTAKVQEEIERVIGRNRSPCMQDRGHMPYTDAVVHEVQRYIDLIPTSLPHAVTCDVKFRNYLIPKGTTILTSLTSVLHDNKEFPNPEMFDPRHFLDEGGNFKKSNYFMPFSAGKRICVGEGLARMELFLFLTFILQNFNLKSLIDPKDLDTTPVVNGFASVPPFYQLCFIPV
Sequence of 5-hydroxytryptamine receptor 2A (P35363 whole entry): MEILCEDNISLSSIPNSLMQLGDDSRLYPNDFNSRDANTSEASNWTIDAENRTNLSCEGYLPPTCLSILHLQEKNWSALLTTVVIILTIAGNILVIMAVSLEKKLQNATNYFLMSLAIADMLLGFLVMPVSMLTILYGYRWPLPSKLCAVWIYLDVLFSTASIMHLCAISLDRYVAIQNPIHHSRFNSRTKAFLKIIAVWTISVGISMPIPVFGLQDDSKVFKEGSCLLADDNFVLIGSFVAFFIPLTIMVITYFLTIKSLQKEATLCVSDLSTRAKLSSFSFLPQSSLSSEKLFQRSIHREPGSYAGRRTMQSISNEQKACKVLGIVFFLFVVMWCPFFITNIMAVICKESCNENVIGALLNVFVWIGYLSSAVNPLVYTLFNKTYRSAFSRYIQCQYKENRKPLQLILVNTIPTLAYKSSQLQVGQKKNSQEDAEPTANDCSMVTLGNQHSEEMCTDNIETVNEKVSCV
Sequence of DNA dC->dU-editing enzyme APOBEC-3A (P31941 whole entry): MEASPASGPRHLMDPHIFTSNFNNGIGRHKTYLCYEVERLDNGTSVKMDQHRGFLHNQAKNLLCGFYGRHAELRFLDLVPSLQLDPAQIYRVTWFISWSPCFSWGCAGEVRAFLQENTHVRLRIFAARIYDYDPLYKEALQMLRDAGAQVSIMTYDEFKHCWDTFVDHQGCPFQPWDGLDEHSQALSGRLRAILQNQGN
Sequence of DNA dC->dU-editing enzyme APOBEC-3G (Q9HC16 whole entry): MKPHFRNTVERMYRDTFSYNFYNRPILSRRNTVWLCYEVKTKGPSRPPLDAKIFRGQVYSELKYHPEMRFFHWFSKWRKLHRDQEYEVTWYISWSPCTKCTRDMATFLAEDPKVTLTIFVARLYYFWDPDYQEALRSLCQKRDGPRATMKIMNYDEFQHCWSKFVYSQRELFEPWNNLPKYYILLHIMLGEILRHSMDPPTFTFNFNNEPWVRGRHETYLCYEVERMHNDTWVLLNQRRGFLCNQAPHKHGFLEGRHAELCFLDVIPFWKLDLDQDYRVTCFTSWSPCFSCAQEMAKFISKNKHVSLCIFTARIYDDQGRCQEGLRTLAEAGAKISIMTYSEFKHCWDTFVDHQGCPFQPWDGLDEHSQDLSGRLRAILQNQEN

For the compound `Cc1cc(C(=O)CN2C(=O)c3ccccc3C2=O)c(C)n1Cc1cccs1`, the half-maximal activity concentration (AC50) (usually the concentration giving half of the maximal activity seen) with HEK293 is 4.41 µM (active).
Turning to `CC(C)(C)C(=O)N1CCN(c2ccc([N+](=O)[O-])c(NCC3CCCO3)c2)CC1` (configuration not stated), the AC50 is 25.1 µM (inconclusive) at Cytochrome P450 2C19, “inconclusive” on Cytochrome P450 3A4 and 14.1 µM (inconclusive) at Cytochrome P450 1A2.
Take `O=[N+]([O-])c1cccnc1N1CCOCC1`: the half-maximal activity concentration (AC50) entry on Cytochrome P450 3A4 is “inconclusive”; at Cytochrome P450 1A2, 28.2 µM (inconclusive); at Cytochrome P450 2C9, 12.6 µM (inconclusive).
As for `C=CCn1c(-c2ccc(OC)cc2)nc2ccccc21`, the EC50 in data set [1] is > 53 µM (inactive). Moreover, the half-maximal inhibitory concentration (IC50) (as a rule, the concentration at which inhibition is half-maximal) in [2] is 4.36 µM (active); in data set [3] it was 4.04 µM (active).
On to `C=CCn1c(NCCc2ccccc2)nc2c1c(=O)n(C)c(=O)n2C`, for which the IC50 in data set [2] is 1.86 µM (active); in data set [3], 2.56 µM (active). In addition, the values for the concentration at half-maximal activity (AC50) in data set [4], in data set [5] and in [6] were 57.2 µM (active), 1.83 µM (active) and 7.83 µM (active), respectively.
In the case of `CCOC(=O)c1cnc2cc(Cl)c(OC)cc2c1NCC1CCCO1` (configuration not stated), the results for the IC50 in data set [2] and in data set [3] were 15 µM (inactive) and 2.7 µM (active), respectively.
For `O=C(c1cccc(F)c1)N1CCC2(CC1)CN(c1ccccc1)C2`, the AC50 result at Cytochrome P450 3A4 is “inconclusive”.
Consider `O=C(c1cnccn1)N1CCC2(CC1)CN(C(c1ccccc1)c1ccccc1)C2`, for which the concentration at half-maximal activity (AC50) result at Cytochrome P450 3A4 is “inconclusive”; at Cytochrome P450 1A2, 25.1 µM (inconclusive).
The corresponding values for `O=C(c1ccncc1)N1CCC2(CC1)CN(C(c1ccccc1)c1ccccc1)C2` are “inconclusive” and 15.8 µM (inconclusive).
For the compound `CC(=O)c1cccc(OC(=O)c2ccc3c(=O)n4c(nc3c2)CCC4)c1`, the EC50 was > 150 µM (not active) at Streptokinase A, 12.6 µM (active) in [7] and 14.4 µM (active) with Streptococcus. Further, the concentration for half-maximal inhibition (IC50) in data set [8] was 6.27 µM (active); in [9] it was 5.35 µM (active).
Turning to `CCC(c1nnnn1-c1ccc2c(c1)OCCO2)N1CCN(C/C=C/c2ccccc2)CC1` (configuration not stated), the results for the EC50 (at Mu-type opioid receptor; in data set [10]) were 92.6 µM (inactive) and 76.2 µM (inactive), respectively.
In the case of `CO/N=C(\c1nonc1N)N1CCN(c2ccc(Cl)cc2[N+](=O)[O-])CC1`, the IC50 in data set [11] was 83.3 µM (inactive); in data set [12], > 50 µM (not active); in data set [13], 119 µM (inactive).

The record behind these values is ChEMBL document CHEMBL1201862, “PubChem BioAssay data set” (2004).
